Literature values as cited in patent publication US11582972B2, “Controlled-diffusion semiochemical composition” (MELCHIOR MATERIAL AND LIFE SCIENCE FRANCE, priority 2017, dated 2023).

System: Metamasius hemipterus sericeus
Details: for attractiveness: high doses: ethyl acetate >800 mg/d, ethyl propionate >300 mg/d, ethyl butyrate >100 mg/d

Structure (SMILES)	synergistic effect with pheromones (dose >650 mg/d, in the field)	attractiveness
CCOC(C)=O [ethyl acetate]	synergistic effect with pheromones equivalent to 250 g of sugarcane	as attractive as 250 g of sugarcane
CCCC(=O)OCC [ethyl butyrate]		as attractive as 250 g of sugarcane
CCOC(=O)CC [ethyl propionate]		as attractive as 250 g of sugarcane
